Experimental data reported in patent US20260001914A1, “MACROCYCLIC PEPTIDES TARGETING KRAS” (Merck Sharp & Dohme LLC, priority 2022, published 2026).
*1 amine or outer side, *2 acyl side, *3 side chain or, on linkers, in order; H or OH if unused. Where a SMILES comes first, the peptide text is derived from it. [ ]: non-standard residue; d: D form. X34 = O=C(C[C@@H](Cc1ccccc1)C(=O)[*:2])C12CC(CN[*:1])(C1)C2; Ala(1-bicyclo(1.1.1)pentyl) = N[C@@H](CC12CC(C1)C2)C(=O)O; NMeNva(5-imidazol-1-yl) = CN[C@@H](CCCn1ccnc1)C(=O)O; X23 = O=C([C@H](Cc1ccc(C(F)(F)F)nc1)N[*:1])[*:2]; Ala(pyrimidin-5-yl) = N[C@@H](Cc1cncnc1)C(=O)O; NMePhe(3-Me) = CN[C@@H](Cc1cccc(C)c1)C(=O)O; X11 = CC(C)(F)CC[C@H](N[*:1])C(=O)[*:2]; X13 = O=C([C@H](Cc1ccncc1F)N[*:1])[*:2]; X15 = O=C([C@H](Cc1cnccc1F)N[*:1])[*:2]; NMeAha = CN[C@@H](CCN=[N+]=[N-])C(=O)O; Nle(5,5-F2) = CC(F)(F)CC[C@H](N)C(=O)O; X2 = O=C([C@H](Cc1ccccc1F)O[*:1])[*:2]; Phe(2-F) = N[C@@H](Cc1ccccc1F)C(=O)O; Abu(4,4-F2) = N[C@@H](CC(F)F)C(=O)O; NMe3Pal = CN[C@@H](Cc1cccnc1)C(=O)O; X1 = O=C(C12CC(CN[*:1])(C1)C2)[*:2]; Aha = [N-]=[N+]=NCC[C@H](N)C(=O)O; Ala(cPr) = N[C@@H](CC1CC1)C(=O)O; NMeF = CN[C@@H](Cc1ccccc1)C(=O)O; PhLac = O=C(O)[C@@H](O)Cc1ccccc1; X9 = CCCC[C@H](O[*:1])C(=O)[*:2]; 3Pal = N[C@@H](Cc1cccnc1)C(=O)O; Ala(CN) = N#CC[C@H](N)C(=O)O; NMeNle = CCCC[C@H](NC)C(=O)O; hLeu = CC(C)CC[C@H](N)C(=O)O; NMeS = CN[C@@H](CO)C(=O)O; NMeA = CN[C@@H](C)C(=O)O; Nle = CCCC[C@H](N)C(=O)O

target: phosphorylation levels of ERK1/2 in AsPC-1 (homozygous KRAS-G12D) cells (Homo sapiens, UniProt P01116, G12D); assay: Cellular phospho-ERK assay in AsPC-1 cells (Alpha Screen), assay medium without fetal bovine serum; format: cell-based; settings: phospho-ERK AlphaScreen, 18 h;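 also: signal taken as phospho-ERK over total ERK per well, both detected in one multiplex bead assay, EC50 from four-parameter logistic fit of dose-response curves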
Sequence (P01116 1-186 G12D): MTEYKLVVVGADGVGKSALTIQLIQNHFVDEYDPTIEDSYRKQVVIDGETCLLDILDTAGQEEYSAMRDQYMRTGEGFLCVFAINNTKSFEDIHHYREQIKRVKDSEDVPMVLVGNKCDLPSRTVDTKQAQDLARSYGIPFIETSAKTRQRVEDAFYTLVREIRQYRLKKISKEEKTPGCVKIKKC

Going from `CCCC[C@@H]1NC(=O)[C@H](Cc2ccc(C(F)(F)F)nc2)NC(=O)[C@H](CCN=[N+]=[N-])N(C)C(=O)[C@H](Cc2ccccc2)OC(=O)C23CC(CNC(=O)[C@H](Cc4cccnc4)N(C)C(=O)[C@H](CCCC)NC(=O)[C@H](Cc4ccccc4F)NC1=O)(C2)C3` [compound 241, cyclo(FLac-NMeDabN3-4CF33Pal-Nle-Phe2F-Nle-NMe3Pal-amBCP)] (cyclo([NMe3Pal][X1][PhLac][NMeAha][X23][Nle][Phe(2-F)][Nle])) to `CCCC[C@@H]1NC(=O)[C@H](Cc2cccnc2)NC(=O)[C@H](CCN=[N+]=[N-])N(C)C(=O)[C@H](Cc2ccccc2)OC(=O)C23CC(CNC(=O)[C@H](Cc4cccnc4)N(C)C(=O)[C@H](CCCC)NC(=O)[C@H](Cc4ccccc4F)NC1=O)(C2)C3` [compound 249, cyclo(FLac-NMeDabN3-3Pal-Nle-Phe2F-Nle-NMe3Pal-amBCP)] (cyclo([3Pal][Nle][Phe(2-F)][Nle][NMe3Pal][X1][PhLac][NMeAha])), the EC50 falls from 6.12 µM to 3.95 µM (1.5-fold). The second is the more potent here.

Going from `CCCC[C@@H]1NC(=O)[C@H](Cc2cncnc2)NC(=O)[C@H](CCN=[N+]=[N-])N(C)C(=O)[C@H](Cc2ccccc2)OC(=O)C23CC(CNC(=O)[C@H](Cc4cccnc4)N(C)C(=O)[C@H](CCCC)NC(=O)[C@H](Cc4ccccc4F)NC1=O)(C2)C3` [compound 242, cyclo(FLac-NMeDabN3-PyrimAla-Nle-Phe2F-Nle-NMe3Pal-amBCP)] (cyclo([NMe3Pal][X1][PhLac][NMeAha][Ala(pyrimidin-5-yl)][Nle][Phe(2-F)][Nle])) to `CCCC[C@@H]1NC(=O)[C@H](Cc2ccccc2F)NC(=O)[C@H](CCN=[N+]=[N-])NC(=O)[C@H](Cc2cccnc2)NC(=O)[C@H](CCCC)N(C)C(=O)[C@H](Cc2ccccc2)OC(=O)C23CC(CNC(=O)[C@H](Cc4cccnc4)N(C)C1=O)(C2)C3` [compound 243, cyclo(FLac-NMeNle-3Pal-DabN3-Phe2F-Nle-NMe3Pal-amBCP)] (cyclo([3Pal][Aha][Phe(2-F)][Nle][NMe3Pal][X1][PhLac][NMeNle])), the EC50 rises from 11.6 µM to 21.7 µM (1.9-fold).

First: CCCC[C@@H]1NC(=O)[C@H](Cc2cccnc2)NC(=O)[C@H](C)N(C)C(=O)[C@H](Cc2ccccc2)OC(=O)C23CC(CNC(=O)[C@H](Cc4cccnc4)N(C)C(=O)[C@H](CCCC)NC(=O)[C@H](Cc4ccccc4F)NC1=O)(C2)C3 [compound 244, cyclo(FLac-NMeA-3Pal-Nle-Phe2F-Nle-NMe3Pal-amBCP)] (cyclo([3Pal][Nle][Phe(2-F)][Nle][NMe3Pal][X1][PhLac][NMeA]))
Second: CCCC[C@@H]1NC(=O)[C@H](Cc2cccnc2)NC(=O)[C@H](COC)N(C)C(=O)[C@H](Cc2ccccc2)OC(=O)C23CC(CNC(=O)[C@H](Cc4cccnc4)N(C)C(=O)[C@H](CCCC)NC(=O)[C@H](Cc4ccccc4F)NC1=O)(C2)C3 [compound 255, cyclo(FLac-nMeSMe-3Pal-Nle-Phe2F-Nle-NMe3Pal-amBCP)] (cyclo([3Pal][Nle][Phe(2-F)][Nle][NMe3Pal][X1][PhLac][NMeS](Me)))
The EC50 of the first is lower: 7.3 µM for the first, greater than 50.8 µM for the second. The first is the more potent here.

`CCCC[C@@H]1NC(=O)[C@H](Cc2cncnc2)NC(=O)[C@H](CCCn2ccnc2)N(C)C(=O)[C@H](Cc2ccccc2)OC(=O)C23CC(CNC(=O)[C@H](Cc4cccnc4)N(C)C(=O)[C@H](CCCC)NC(=O)[C@H](Cc4ccccc4F)OC1=O)(C2)C3` [compound 246, cyclo(FLac-NMeNvalmid-PyrimAla-Nle-F2FLac-Nle-NMe3Pal-amBCP)] (cyclo([NMe3Pal][X1][PhLac][NMeNva(5-imidazol-1-yl)][Ala(pyrimidin-5-yl)][Nle][X2][Nle])) and `CCCC[C@@H]1NC(=O)[C@H](Cc2ccccc2F)NC(=O)[C@H](CCCC)OC(=O)[C@H](Cc2cccnc2)NC(=O)[C@H](CCN=[N+]=[N-])N(C)C(=O)[C@H](Cc2ccccc2)NC(=O)C23CC(CNC(=O)[C@H](Cc4cccnc4)N(C)C1=O)(C2)C3` [compound 250, cyclo(F-NMeDabN3-3Pal-NleLac-Phe2F-Nle-NMe3Pal-amBCP)] (cyclo(F[NMeAha][3Pal][X9][Phe(2-F)][Nle][NMe3Pal][X1])) cannot be ordered by EC50: greater than 50.8 µM for the first, greater than 50.8 µM for the second.

First: CCCC[C@@H]1NC(=O)[C@H](Cc2cccnc2)NC(=O)[C@H](CC#N)NC(=O)[C@H](Cc2ccccc2)OC(=O)C23CC(CNC(=O)[C@H](Cc4cccnc4)N(C)C(=O)[C@H](CCCC)NC(=O)[C@H](Cc4ccccc4F)NC1=O)(C2)C3 [compound 252, cyclo(FLac-AlaCN-3Pal-Nle-Phe2F-Nle-NMe3Pal-amBCP)] (cyclo([3Pal][Nle][Phe(2-F)][Nle][NMe3Pal][X1][PhLac][Ala(CN)]))
Second: CC(C)CC[C@@H]1NC(=O)[C@H](Cc2ccccc2F)NC(=O)[C@H](CC2CC2)NC(=O)[C@H](Cc2cncnc2)NC(=O)[C@H](C)N(C)C(=O)[C@H](Cc2ccccc2)OC(=O)C23CC(CNC(=O)[C@H](Cc4ccccc4)N(C)C1=O)(C2)C3 [compound 260, cyclo(FLac-NMeA-PyrimAla-cPrA-Phe2F-hL-NMeF-amBCP)] (cyclo([Ala(cPr)][Phe(2-F)][hLeu][NMeF][X1][PhLac][NMeA][Ala(pyrimidin-5-yl)]))
The EC50 of the first is higher: greater than 50.8 µM for the first, 0.167 µM for the second.

First: C[C@H]1C(=O)N[C@@H](Cc2cncnc2)C(=O)N[C@@H](CC2CC2)C(=O)N[C@@H](Cc2ccccc2F)C(=O)N[C@@H](CC2CC2)C(=O)N(C)[C@@H](Cc2ccccc2)C(=O)NCC23CC(C2)(C3)C(=O)O[C@@H](Cc2ccccc2)C(=O)N1C [compound 267, cyclo(FLac-NMeA-PyrimAla-cPrA-Phe2F-cPrA-NMeF-amBCP)] (cyclo([Ala(cPr)][NMeF][X1][PhLac][NMeA][Ala(pyrimidin-5-yl)][Ala(cPr)][Phe(2-F)]))
Second: C[C@H]1C(=O)N[C@@H](Cc2cncnc2)C(=O)N[C@@H](CC2CC2)C(=O)N[C@@H](Cc2ccccc2F)C(=O)N[C@@H](CC(F)F)C(=O)N(C)[C@@H](Cc2ccccc2)C(=O)NCC23CC(C2)(C3)C(=O)O[C@@H](Cc2ccccc2)C(=O)N1C [compound 271, cyclo(FLac-NMeA-PyrimAla-cPrA-Phe2F-AbuF2-NMeF-amBCP)] (cyclo([Ala(cPr)][Phe(2-F)][Abu(4,4-F2)][NMeF][X1][PhLac][NMeA][Ala(pyrimidin-5-yl)]))
The EC50 of the first is 4-fold lower: 9.13 µM for the first, 36.6 µM for the second.

Compared with `CC(C)CC[C@@H]1NC(=O)[C@H](Cc2ccccc2F)NC(=O)[C@H](CC23CC(C2)C3)NC(=O)[C@H](Cc2cncnc2)NC(=O)[C@H](C)N(C)C(=O)[C@H](Cc2ccccc2)OC(=O)C23CC(CNC(=O)[C@H](Cc4ccccc4)N(C)C1=O)(C2)C3` [compound 272, cyclo(FLac-NMeA-PyrimAla-AlaPent-Phe2F-hL-NMeF-amBCP)] (cyclo([NMeA][Ala(pyrimidin-5-yl)][Ala(1-bicyclo(1.1.1)pentyl)][Phe(2-F)][hLeu][NMeF][X1][PhLac])), `C[C@H]1C(=O)N[C@@H](Cc2cncnc2)C(=O)N[C@@H](CC2CC2)C(=O)N[C@@H](Cc2ccccc2F)C(=O)N[C@@H](CCC(C)(C)F)C(=O)N(C)[C@@H](Cc2ccccc2)C(=O)NCC23CC(C2)(C3)C(=O)O[C@@H](Cc2ccccc2)C(=O)N1C` [compound 277, cyclo(FLac-NMeA-PyrimAla-cPrA-Phe2F-hL3F-NMeF-amBCP)] (cyclo([Ala(cPr)][Phe(2-F)][X11][NMeF][X1][PhLac][NMeA][Ala(pyrimidin-5-yl)])) is 3.7-fold lower in EC50: 2.95 µM for the first, 0.793 µM for the second.

First: C[C@H]1C(=O)N[C@@H](Cc2cncnc2)C(=O)N[C@@H](CC2CC2)C(=O)N[C@@H](Cc2ccccc2F)C(=O)N[C@@H](CCC(C)(C)F)C(=O)N(C)[C@@H](Cc2ccccc2)C(=O)NCC23CC(C2)(C3)C(=O)C[C@@H](Cc2ccccc2)C(=O)N1C [compound 273, cyclo(CPhe-NMeA-PyrimAla-cPrA-Phe2F-hL3F-NMeF-amBCP)] (cyclo([Ala(cPr)][Phe(2-F)][X11][NMeF][X34][NMeA][Ala(pyrimidin-5-yl)]))
Second: C[C@H]1C(=O)N[C@@H](Cc2cncnc2)C(=O)N[C@@H](CC2CC2)C(=O)N[C@@H](Cc2ccccc2F)C(=O)N[C@@H](CCC(C)(F)F)C(=O)N(C)[C@@H](Cc2ccccc2)C(=O)NCC23CC(C2)(C3)C(=O)O[C@@H](Cc2ccccc2)C(=O)N1C [compound 276, cyclo(FLac-NMeA-PyrimAla-cPrA-Phe2F-Nle3F2-NMeF-amBCP)] (cyclo([Ala(cPr)][Phe(2-F)][Nle(5,5-F2)][NMeF][X1][PhLac][NMeA][Ala(pyrimidin-5-yl)]))
The EC50 of the first is 1.8-fold higher: 1.23 µM for the first, 0.666 µM for the second.

Going from `Cc1cccc(C[C@H]2C(=O)NCC34CC(C3)(C4)C(=O)O[C@@H](Cc3ccccc3)C(=O)N(C)[C@@H](C)C(=O)N[C@@H](Cc3cncnc3)C(=O)N[C@@H](CC3CC3)C(=O)N[C@@H](Cc3ccccc3F)C(=O)N[C@@H](CCC(C)(C)F)C(=O)N2C)c1` [compound 274, cyclo(FLac-NMeA-PyrimAla-cPrA-Phe2F-hL3F-NMePhe3Me-amBCP)] (cyclo([Ala(cPr)][Phe(2-F)][X11][NMePhe(3-Me)][X1][PhLac][NMeA][Ala(pyrimidin-5-yl)])) to `Cc1cccc(C[C@H]2C(=O)NCC34CC(C3)(C4)C(=O)O[C@@H](Cc3ccccc3)C(=O)N(C)[C@@H](C)C(=O)N[C@@H](Cc3cncnc3)C(=O)N[C@@H](CC3CC3)C(=O)N[C@@H](Cc3ccccc3F)C(=O)N[C@@H](CCC(C)(F)F)C(=O)N2C)c1` [compound 275, cyclo(FLac-NMeA-PyrimAla-cPrA-Phe2F-Nle3F2-NMePhe3Me-amBCP)] (cyclo([Ala(cPr)][Phe(2-F)][Nle(5,5-F2)][NMePhe(3-Me)][X1][PhLac][NMeA][Ala(pyrimidin-5-yl)])), the EC50 rises from 0.604 µM to 0.924 µM (1.5-fold). The first is the more potent here.

`Cc1cccc(C[C@H]2C(=O)NCC34CC(C3)(C4)C(=O)O[C@@H](Cc3ccccc3)C(=O)N(C)[C@@H](C)C(=O)N[C@@H](Cc3cncnc3)C(=O)N[C@@H](CC3CC3)C(=O)N[C@@H](Cc3cnccc3F)C(=O)N[C@@H](CCC(C)C)C(=O)N2C)c1` [compound 278, cyclo(FLac-NMeA-PyrimAla-cPrA-3Pal6F-hL-NMePhe3Me-amBCP)] (cyclo([Ala(cPr)][X15][hLeu][NMePhe(3-Me)][X1][PhLac][NMeA][Ala(pyrimidin-5-yl)])) and `Cc1cccc(C[C@H]2C(=O)NCC34CC(C3)(C4)C(=O)O[C@@H](Cc3ccccc3)C(=O)N(C)[C@@H](C)C(=O)N[C@@H](Cc3cncnc3)C(=O)N[C@@H](CC3CC3)C(=O)N[C@@H](Cc3ccncc3F)C(=O)N[C@@H](CCC(C)C)C(=O)N2C)c1` [compound 279, cyclo(FLac-NMeA-PyrimAla-cPrA-4Pal2F-hL-NMePhe3Me-amBCP)] (cyclo([Ala(cPr)][X13][hLeu][NMePhe(3-Me)][X1][PhLac][NMeA][Ala(pyrimidin-5-yl)])) are within 1.5-fold of each other in EC50: 4 µM for the first, 4.02 µM for the second.
